# Key:
# [1] = test system: PBMC cultures from HIV-1 infected subjects on cART; test: Induced cytokines and chemokines in PBMC cultures, multiplexed xMAP Luminex, geometric mean values; assay type: cell-based, human; conditions: for GRO-α Fold / Granzyme B Fold / I-TAC Fold / IFN-α Fold / IFN-γ Fold / IL-1RA Fold / IL-1β Fold / IL-6 Fold / IL-8 Fold / IL-10 Fold / IL-18 Fold / IL-23 Fold / IP-10 Fold / MCP-1 Fold / MIP-1α Fold / MIP-1β Fold / MIP-3α Fold / MMP-1 Fold / TNF-α Fold / IL-12p70 Fold: day 2, 4 subjects
# Procedure: To further characterize the immune modulatory effect of TLR8 agonists in cells from HIV-infected subjects, the production of secreted cytokines and chemokines was measured in PBMCs from 4 HIV-infected subjects on suppressive cART (anonymized participant IDs 180-183). PBMCs were purified, as described in Example 121, and immediately added to tissue culture plates pre-equilibrated at 37° C. with media containing DMSO (vehicle control) or with the TLR8 modulating compound Example 15 at concentrations ranging from 1.0 nM to 10.0 μM. On day 2 after treatment, cell-free culture supernatants were collected and frozen at −80 C for subsequent analysis. Frozen supernatants were thawed at room temperature, and the indicated cytokines and chemokines were quantified with a custom multiplexed xMAP Luminex® assay following the manufacturer's instructions (Thermo Fisher Scientific Inc., Grand Island, N.Y., custom-designed kit).
# Data are expressed as geometric mean cytokine values (pg/ml) obtained from 4 subjects' PBMCs. Geometric mean fold-activation from three independent incubation samples for each condition. Fold (fold-activation) is calculated as a ratio of the concentration of cytokine detected in cell culture supernatants from agonist treated samples relative to DMSO treated samples
# [2] = test system: HIV-specific polyfunctional CD8 T cells; test: Induced HIV-specific polyfunctional CD8+ T cells in PBMC cultures from HIV-1 infected subjects on cART; assay type: cell-based, human
# [3] = 1.0 nM to 10.0 μM, not induced >2-fold
compound,measurement,setting,value
CCCC[C@H](CO)Nc1nc(N)nc2cccnc12 [Example 15],IFN-ω induction compared to DMSO control,[1]; [3],≤ 2 fold
same,IL-2 induction compared to DMSO control,[1]; [3],≤ 2 fold
same,IL-4 induction compared to DMSO control,[1]; [3],≤ 2 fold
same,IL-5 induction compared to DMSO control,[1]; [3],≤ 2 fold
same,IL-7 induction compared to DMSO control,[1]; [3],≤ 2 fold
same,IL-15 induction compared to DMSO control,[1]; [3],≤ 2 fold
same,IL-17A induction compared to DMSO control,[1]; [3],≤ 2 fold
same,IL-21 induction compared to DMSO control,[1]; [3],≤ 2 fold
same,IL-27 induction compared to DMSO control,[1]; [3],≤ 2 fold
same,IL-29 induction compared to DMSO control,[1]; [3],≤ 2 fold
same,GRO-α Fold,[1]; 1 nM vs DMSO,1 fold
same,Granzyme B Fold,[1]; 1 nM vs DMSO,<1 fold
same,I-TAC Fold,[1]; 1 nM vs DMSO,2 fold
same,IFN-α Fold,[1]; 1 nM vs DMSO,2 fold
same,IFN-γ Fold,[1]; 1 nM vs DMSO,2 fold
same,IL-1RA Fold,[1]; 1 nM vs DMSO,3 fold
same,IL-1β Fold,[1]; 1 nM vs DMSO,2 fold
same,IL-6 Fold,[1]; 1 nM vs DMSO,1 fold
same,IL-8 Fold,[1]; 1 nM vs DMSO,2 fold
same,IL-10 Fold,[1]; 1 nM vs DMSO,1 fold
same,IL-18 Fold,[1]; 1 nM vs DMSO,1 fold
same,IL-23 Fold,[1]; 1 nM vs DMSO,2 fold
same,IP-10 Fold,[1]; 1 nM vs DMSO,3 fold
same,MCP-1 Fold,[1]; 1 nM vs DMSO,3 fold
same,MIP-1α Fold,[1]; 1 nM vs DMSO,5 fold
same,MIP-1β Fold,[1]; 1 nM vs DMSO,2 fold
same,MIP-3α Fold,[1]; 1 nM vs DMSO,1 fold
same,MMP-1 Fold,[1]; 1 nM vs DMSO,1 fold
same,GRO-α Fold,[1]; 10 nM vs DMSO,1 fold
same,Granzyme B Fold,[1]; 10 nM vs DMSO,<1 fold
same,I-TAC Fold,[1]; 10 nM vs DMSO,1 fold
same,IFN-α Fold,[1]; 10 nM vs DMSO,2 fold
same,IFN-γ Fold,[1]; 10 nM vs DMSO,2 fold
same,IL-1RA Fold,[1]; 10 nM vs DMSO,1 fold
same,IL-1β Fold,[1]; 10 nM vs DMSO,1 fold
same,IL-6 Fold,[1]; 10 nM vs DMSO,1 fold
same,IL-8 Fold,[1]; 10 nM vs DMSO,1 fold
same,IL-10 Fold,[1]; 10 nM vs DMSO,1 fold
same,IL-18 Fold,[1]; 10 nM vs DMSO,2 fold
same,IL-23 Fold,[1]; 10 nM vs DMSO,1 fold
same,IP-10 Fold,[1]; 10 nM vs DMSO,1 fold
same,MCP-1 Fold,[1]; 10 nM vs DMSO,1 fold
same,MIP-1α Fold,[1]; 10 nM vs DMSO,1 fold
same,MIP-1β Fold,[1]; 10 nM vs DMSO,1 fold
same,MIP-3α Fold,[1]; 10 nM vs DMSO,1 fold
same,MMP-1 Fold,[1]; 10 nM vs DMSO,1 fold
same,TNF-α Fold,[1]; 10 nM vs DMSO,2 fold
same,GRO-α Fold,[1]; 100 nM vs DMSO,20 fold
same,Granzyme B Fold,[1]; 100 nM vs DMSO,<1 fold
same,I-TAC Fold,[1]; 100 nM vs DMSO,1 fold
same,IFN-α Fold,[1]; 100 nM vs DMSO,1 fold
same,IFN-γ Fold,[1]; 100 nM vs DMSO,2 fold
same,IL-1RA Fold,[1]; 100 nM vs DMSO,12 fold
same,IL-1β Fold,[1]; 100 nM vs DMSO,45 fold
same,IL-6 Fold,[1]; 100 nM vs DMSO,57 fold
same,IL-8 Fold,[1]; 100 nM vs DMSO,8 fold
same,IL-10 Fold,[1]; 100 nM vs DMSO,145 fold
same,IL-12p70 Fold,[1]; 100 nM vs DMSO,2 fold
same,IL-18 Fold,[1]; 100 nM vs DMSO,1 fold
same,IL-23 Fold,[1]; 100 nM vs DMSO,2 fold
same,IP-10 Fold,[1]; 100 nM vs DMSO,1 fold
same,MCP-1 Fold,[1]; 100 nM vs DMSO,33 fold
same,MIP-1α Fold,[1]; 100 nM vs DMSO,3 fold
same,MIP-1β Fold,[1]; 100 nM vs DMSO,1 fold
same,MIP-3α Fold,[1]; 100 nM vs DMSO,1 fold
same,MMP-1 Fold,[1]; 100 nM vs DMSO,2 fold
same,TNF-α Fold,[1]; 100 nM vs DMSO,6 fold
same,GRO-α Fold,[1]; 1000 nM vs DMSO,18 fold
same,Granzyme B Fold,[1]; 1000 nM vs DMSO,4 fold
same,I-TAC Fold,[1]; 1000 nM vs DMSO,2 fold
same,IFN-α Fold,[1]; 1000 nM vs DMSO,3 fold
same,IFN-γ Fold,[1]; 1000 nM vs DMSO,228 fold
same,IL-1RA Fold,[1]; 1000 nM vs DMSO,46 fold
same,IL-1β Fold,[1]; 1000 nM vs DMSO,1578 fold
same,IL-6 Fold,[1]; 1000 nM vs DMSO,290 fold
same,IL-8 Fold,[1]; 1000 nM vs DMSO,5 fold
same,IL-10 Fold,[1]; 1000 nM vs DMSO,219 fold
same,IL-12p70 Fold,[1]; 1000 nM vs DMSO,175 fold
same,IL-18 Fold,[1]; 1000 nM vs DMSO,11 fold
same,IL-23 Fold,[1]; 1000 nM vs DMSO,8 fold
same,IP-10 Fold,[1]; 1000 nM vs DMSO,3 fold
same,MCP-1 Fold,[1]; 1000 nM vs DMSO,22 fold
same,MIP-1α Fold,[1]; 1000 nM vs DMSO,374 fold
same,MIP-1β Fold,[1]; 1000 nM vs DMSO,340 fold
same,MIP-3α Fold,[1]; 1000 nM vs DMSO,42 fold
same,MMP-1 Fold,[1]; 1000 nM vs DMSO,3 fold
same,TNF-α Fold,[1]; 1000 nM vs DMSO,1661 fold
same,GRO-α Fold,[1]; 3000 nM vs DMSO,18 fold
same,Granzyme B Fold,[1]; 3000 nM vs DMSO,4 fold
same,I-TAC Fold,[1]; 3000 nM vs DMSO,2 fold
same,IFN-α Fold,[1]; 3000 nM vs DMSO,3 fold
same,IFN-γ Fold,[1]; 3000 nM vs DMSO,143 fold
same,IL-1RA Fold,[1]; 3000 nM vs DMSO,25 fold
same,IL-1β Fold,[1]; 3000 nM vs DMSO,1767 fold
same,IL-6 Fold,[1]; 3000 nM vs DMSO,195 fold
same,IL-8 Fold,[1]; 3000 nM vs DMSO,4 fold
same,IL-10 Fold,[1]; 3000 nM vs DMSO,279 fold
same,IL-12p70 Fold,[1]; 3000 nM vs DMSO,127 fold
same,IL-18 Fold,[1]; 3000 nM vs DMSO,18 fold
same,IL-23 Fold,[1]; 3000 nM vs DMSO,19 fold
same,IP-10 Fold,[1]; 3000 nM vs DMSO,3 fold
same,MCP-1 Fold,[1]; 3000 nM vs DMSO,25 fold
same,MIP-1α Fold,[1]; 3000 nM vs DMSO,421 fold
same,MIP-1β Fold,[1]; 3000 nM vs DMSO,240 fold
same,MIP-3α Fold,[1]; 3000 nM vs DMSO,82 fold
same,MMP-1 Fold,[1]; 3000 nM vs DMSO,3 fold
same,TNF-α Fold,[1]; 3000 nM vs DMSO,3051 fold
same,GRO-α Fold,[1]; 10000 nM vs DMSO,19 fold
same,Granzyme B Fold,[1]; 10000 nM vs DMSO,3 fold
same,I-TAC Fold,[1]; 10000 nM vs DMSO,1 fold
same,IFN-α Fold,[1]; 10000 nM vs DMSO,2 fold
same,IFN-γ Fold,[1]; 10000 nM vs DMSO,59 fold
same,IL-1RA Fold,[1]; 10000 nM vs DMSO,25 fold
same,IL-1β Fold,[1]; 10000 nM vs DMSO,2204 fold
same,IL-6 Fold,[1]; 10000 nM vs DMSO,241 fold
same,IL-8 Fold,[1]; 10000 nM vs DMSO,4 fold
same,IL-10 Fold,[1]; 10000 nM vs DMSO,304 fold
same,IL-12p70 Fold,[1]; 10000 nM vs DMSO,38 fold
same,IL-18 Fold,[1]; 10000 nM vs DMSO,13 fold
same,IL-23 Fold,[1]; 10000 nM vs DMSO,16 fold
same,IP-10 Fold,[1]; 10000 nM vs DMSO,2 fold
same,MCP-1 Fold,[1]; 10000 nM vs DMSO,27 fold
same,MIP-1α Fold,[1]; 10000 nM vs DMSO,487 fold
same,MIP-1β Fold,[1]; 10000 nM vs DMSO,196 fold
same,MIP-3α Fold,[1]; 10000 nM vs DMSO,65 fold
same,MMP-1 Fold,[1]; 10000 nM vs DMSO,8 fold
same,TNF-α Fold,[1]; 10000 nM vs DMSO,1096 fold
same,Patients in whom increases in HIV-specific polyfunctional CD8 T cells were seen,[2]; 100 nM,3 of 5
same,Median HIV-specific polyfunctional CD8 T cells (% proliferating CD8+ cells double positive for IFN-γ and TNF-α),"[2]; 100 nM, HIV peptide pool, 5 subjects",0.99%
same,Patients in whom increases in HIV-specific polyfunctional CD8 T cells were seen,[2]; 1000 nM,4 of 5
same,Fold increase of median HIV-specific polyfunctional CD8 T cells,"[2]; 1000 nM with HIV specific peptide pool vs vehicle, p<0.05",2.7 fold

# — patent US20180263985A1, “MODULATORS OF TOLL-LIKE RECEPTORS FOR THE TREATMENT OF HIV” (Gilead Sciences, Inc., priority 2015, published 2018)
